Results: patent US10975056B2 (GlaxoSmithKline Intellectual Property Development Limited, priority 2016, dated 2021)
“And” between values parts separate entries of the source, which are not always exact repeats. Identical values can stand only once. Like-named read-outs stand apart in the source and are kept apart here.

Legend:
[1] = target: DNMT1 (Homo sapiens, UniProt P26358); experiment: DNMT1 biochemical activity, breaklight assay and/or SPA assay
[2] = test system: erythroid progenitor cells (EPCs); experiment: Fetal hemoglobin (HbF) ELISA in day 7 erythroid progenitor cells; type: cell-based, human; settings: Homo sapiens, Erythroid progenitor cell, HbF ELISA, day 7 EPCs, 5 days; read-out: EPC ELISA (pEC50 category) (converted);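 further: for fetal hemoglobin induction normalized to vehicle-treated cells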
Outline: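 Day 7 EPCs from human bone marrow CD34+ cells were plated at 1,000 cells/well in media with 3 U/mL rhEPO. They were exposed to a 22-point dilution ([…]) for 5 days at 37 °C. Lysate HbF was measured by sandwich ELISA (OD450) and normalized to DMSO control wells.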

[3] = binned activity in either the breaklight or the SPA assay, read-out: DNMT1 BioChemical (pIC50 category) (converted)
[4] = breaklight assay and/or SPA assay, repeated experimental runs, read-out: average pIC50 against DNMT1 (converted)
[5] = binned activity in either the breaklight or the SPA assay

Chain of DNMT1 (P26358 whole entry, looked up): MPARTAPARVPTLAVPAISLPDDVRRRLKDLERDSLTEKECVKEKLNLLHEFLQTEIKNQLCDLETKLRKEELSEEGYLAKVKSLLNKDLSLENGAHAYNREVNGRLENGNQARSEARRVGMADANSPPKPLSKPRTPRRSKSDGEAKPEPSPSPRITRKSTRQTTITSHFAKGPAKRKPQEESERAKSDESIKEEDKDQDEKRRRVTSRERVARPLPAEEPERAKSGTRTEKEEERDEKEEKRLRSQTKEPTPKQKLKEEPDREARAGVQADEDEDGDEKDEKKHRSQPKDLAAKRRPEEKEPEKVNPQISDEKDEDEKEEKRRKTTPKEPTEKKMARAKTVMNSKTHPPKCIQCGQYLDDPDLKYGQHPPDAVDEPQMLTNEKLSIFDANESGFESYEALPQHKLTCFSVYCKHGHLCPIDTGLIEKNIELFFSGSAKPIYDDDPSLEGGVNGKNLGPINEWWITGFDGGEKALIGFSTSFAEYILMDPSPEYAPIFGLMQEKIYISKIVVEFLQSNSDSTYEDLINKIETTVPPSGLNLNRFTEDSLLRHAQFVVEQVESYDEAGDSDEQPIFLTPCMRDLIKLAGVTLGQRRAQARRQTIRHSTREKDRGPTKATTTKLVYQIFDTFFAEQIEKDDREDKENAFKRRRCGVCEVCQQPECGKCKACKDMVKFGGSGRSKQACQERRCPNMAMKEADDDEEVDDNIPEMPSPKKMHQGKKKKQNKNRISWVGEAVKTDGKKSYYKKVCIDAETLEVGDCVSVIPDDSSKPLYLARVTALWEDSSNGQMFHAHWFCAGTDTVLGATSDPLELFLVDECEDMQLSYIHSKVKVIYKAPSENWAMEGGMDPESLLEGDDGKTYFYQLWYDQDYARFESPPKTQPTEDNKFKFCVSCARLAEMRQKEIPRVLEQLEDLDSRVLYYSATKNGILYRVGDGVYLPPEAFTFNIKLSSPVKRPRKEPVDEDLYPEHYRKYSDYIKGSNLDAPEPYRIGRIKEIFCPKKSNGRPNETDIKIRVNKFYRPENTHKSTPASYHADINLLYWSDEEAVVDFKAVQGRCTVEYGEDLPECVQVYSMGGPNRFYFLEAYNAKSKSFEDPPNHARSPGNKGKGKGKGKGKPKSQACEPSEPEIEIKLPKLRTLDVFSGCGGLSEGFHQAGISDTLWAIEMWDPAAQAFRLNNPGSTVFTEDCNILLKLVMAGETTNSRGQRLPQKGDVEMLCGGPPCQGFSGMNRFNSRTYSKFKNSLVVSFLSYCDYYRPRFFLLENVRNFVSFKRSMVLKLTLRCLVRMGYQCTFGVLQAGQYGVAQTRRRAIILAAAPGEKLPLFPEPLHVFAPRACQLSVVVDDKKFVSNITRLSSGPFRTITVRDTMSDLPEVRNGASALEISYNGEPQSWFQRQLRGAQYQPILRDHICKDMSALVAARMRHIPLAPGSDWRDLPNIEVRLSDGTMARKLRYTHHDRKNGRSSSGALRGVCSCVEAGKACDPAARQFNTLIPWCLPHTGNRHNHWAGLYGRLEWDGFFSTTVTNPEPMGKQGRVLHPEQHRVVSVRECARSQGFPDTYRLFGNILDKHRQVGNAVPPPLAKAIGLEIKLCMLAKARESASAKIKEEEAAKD

Row | Structure (SMILES) | IC50 [1, 3] [µM] | EC50 [2] [µM] | IC50 [1, 4] | DNMT1 BioChemical (pIC50 category) [1, 5] | average pIC50 against DNMT1 ([1]; breaklight assay and/or SPA assay, repeated experimental runs)
1 | CCc1c(C#N)c(SC(C(N)=O)C2CCNCC2)nc(N(C)C)c1C#N (stereo not shown) [Example 157, 2-((3,5-dicyano-6-(dimethylamino)-4-ethylpyridin-2-yl)thio)-2-(piperidin-4-yl)acetamide] | 1 to 31.6 | 1 to 31.6 |  |  | 
2 | CCCS(=O)(=O)N1CCN(c2nc(SC(C(N)=O)c3ccccc3)c(C#N)c(CC)c2C#N)CC1 (stereo not shown) [Example 158, 2-((3,5-Dicyano-4-ethyl-6-(4-(propylsulfonyl)piperazin-1-yl)pyridin-2-yl)thio)-2-phenylacetamide] | 0.316 to 1 | < 0.316 |  |  | 
3 | CCc1c(C#N)c(SC(C(N)=O)c2ccccc2)nc(N2CCN(S(=O)(=O)c3ccccc3)CC2)c1C#N (stereo not shown) [Example 159, 2-((3,5-Dicyano-4-ethyl-6-(4-(phenylsulfonyl)piperazin-1-yl)pyridin-2-yl)thio)-2-phenylacetamide] | 1 to 31.6 | 0.316 to 1 |  |  | 
4 | CCc1c(C#N)c(SC(C(N)=O)c2ccccc2)nc(N2CC[C@@H](O)C2)c1C#N (stereo partly drawn) [Example 160, 2-((3,5-Dicyano-4-ethyl-6-((R)-3-hydroxypyrrolidin-1-yl)pyridin-2-yl)thio)-2-phenylacetamide] | 1 to 31.6 | 1 to 31.6 |  |  | 
5 | CCc1c(C#N)c(SC(C(N)=O)c2ccccc2)nc(N2CCC3(COC3)C2)c1C#N (stereo not shown) [Example 161, 2-((3,5-Dicyano-4-ethyl-6-(2-oxa-6-azaspiro[3.4]octan-6-yl)pyridin-2-yl)thio)-2-phenylacetamide] | 0.316 to 1 | 1 to 31.6 |  |  | 
6 | CCc1c(C#N)c(N[C@@H](C(N)=O)c2ccccc2)nc(N2CCCN(CC)CC2)c1C#N [Example 162, (R)-2-((3,5-Dicyano-4-ethyl-6-(4-ethyl-1,4-diazepan-1-yl)pyridin-2-yl)amino)-2-phenylacetamide] | 1 to 31.6 | 1 to 31.6 |  |  | 
7 | CCc1c(C#N)c(N[C@@H](C(N)=O)c2ccccc2)nc(N2CCCN(CCCN3CCCC3)CC2)c1C#N [Example 163, (R)-2-((3,5-Dicyano-4-ethyl-6-(4-(3-(pyrrolidin-1-yl)propyl)-1,4-diazepan-1-yl)pyridin-2-yl)amino)-2-phenylacetamide] | 1 to 31.6 | > 31.6 |  |  | 
8 | CCc1c(Cl)c(SC(C(N)=O)c2ccccc2)nc(N2CCCN(C)CC2)c1Cl (stereo not shown) [Example 165] | 0.316 to 1 | > 31.6 | 0.316 to 1 µM and 0.631 µM |  | 
9 | CCc1c(C#N)c(SC(C(N)=O)c2ccccc2)nc(N2CCS(=O)(=O)CC2)c1C#N (stereo not shown) [Example 166, 2-((3,5-Dicyano-6-(1,1-dioxidothiomorpholino)-4-ethylpyridin-2-yl)thio)-2-phenylacetamide] | 0.316 to 1 | < 0.316 |  |  | 
10 | CCc1c(C#N)c(SC(C(N)=O)c2ccccc2)nc(N(C)CCN2CCNCC2)c1C#N (stereo not shown) [Example 167, 2-((3,5-Dicyano-4-ethyl-6-(methyl(2-(piperazin-1-yl)ethyl)amino)pyridin-2-yl)thio)-2-phenylacetamide] |  | < 0.316 |  | D (Category D: ≥6.5) | 
11 | CCc1c(C#N)c(S[C@@H](C(N)=O)c2ccccc2)nc(N2CC[C@H](O)C2)c1C#N [Example 168, (R)-2-((3,5-Dicyano-4-ethyl-6-((S)-3-hydroxypyrrolidin-1-yl)pyridin-2-yl)thio)-2-phenylacetamide] |  | 0.316 to 1 | 0.2 µM | D (Category D: ≥6.5) | > 6.5
12 | CCc1c(C#N)c(SC(C(N)=O)c2ccccc2)nc(N(C)CCN2CCC(O)(CN)CC2)c1C#N (stereo not shown) [Example 170, 2-((6-((2-(4-(Aminomethyl)-4-hydroxypiperidin-1-yl)ethyl)(methyl)amino)-3,5-dicyano-4-ethylpyridin-2-yl)thio)-2-phenylacetamide] |  | 1 to 31.6 |  | D (Category D: ≥6.5) | 
13 | N#Cc1c(N2CCCNCC2)nc(SC(C(N)=O)c2ccccc2)c2c1CCC2 (stereo not shown) [Example 171, 2-((4-Cyano-3-(1,4-diazepan-1-yl)-6,7-dihydro-5H-cyclopenta[c]pyridin-1-yl)thio)-2-phenylacetamide] | 0.316 to 1 | > 31.6 |  |  | 
14 | CCc1c(C#N)c(SC(C(N)=O)c2ccccc2)nc(N2CCC(n3ccnc3)CC2)c1C#N (stereo not shown) [Example 172, 2-((6-(4-(1H-Imidazol-1-yl)piperidin-1-yl)-3,5-dicyano-4-ethylpyridin-2-yl)thio)-2-phenylacetamide] | 1 to 31.6 | < 0.316 |  |  | 
15 | CCc1c(C#N)c(SC(C(N)=O)c2ccccc2)nc(N2CCN(Cc3ccncc3)CC2)c1C#N (stereo not shown) [Example 173, 2-((3,5-Dicyano-4-ethyl-6-(4-(pyridin-4-ylmethyl)piperazin-1-yl)pyridin-2-yl)thio)-2-phenylacetamide] | 0.316 to 1 | 0.316 to 1 |  |  | 
16 | CCc1c(C#N)c(OCCN(C)C)nc(SC(C(N)=O)c2ccccc2)c1C#N (stereo not shown) [Example 174, 2-((3,5-Dicyano-6-(2-(dimethylamino)ethoxy)-4-ethylpyridin-2-yl)thio)-2-phenylacetamide] | 0.316 to 1 | 0.316 to 1 |  |  | 

Row | Structure (SMILES) | IC50 [1, 3] [µM] | EC50 [2] [µM] | IC50 [1, 4] | DNMT1 BioChemical (pIC50 category) [1, 5] | average pIC50 against DNMT1 ([1]; breaklight assay and/or SPA assay, repeated experimental runs)
17 | N#Cc1c(SC(C(N)=O)c2ccccc2)nc(N2CCCC(NCC(=O)O)C2)c(C#N)c1C1CC1 (stereo not shown) [Example 175, 2-((1-(6-((2-Amino-2-oxo-1-phenylethyl)thio)-3,5-dicyano-4-cyclopropvlpyridin-2-yl)piperidin-3-yl)amino)acetic acid] | 0.316 to 1 | > 31.6 |  |  | 
18 | CCc1c(C#N)c(SC(C(N)=O)c2ccccc2)nc(N2CCN(Cc3ncco3)CC2)c1C#N (stereo not shown) [Example 176, 2-((3,5-Dicyano-4-ethyl-6-(4-(oxazol-2-ylmethyl)piperazin-1-yl)pyridin-2-yl)thio)-2-phenylacetamide] | 0.316 to 1 | 0.316 to 1 |  |  | 
19 | CCc1c(C#N)c(SC(C(N)=O)c2ccccc2)nc(N2CCN(Cc3ccc[nH]3)CC2)c1C#N (stereo not shown) [Example 177, 2-((6-(4-((1H-Pyrrol-2-yl)methyl)piperazin-1-yl)-3,5-dicyano-4-ethylpyridin-2-yl)thio)-2-phenylacetamide] | 0.316 to 1 | 1 to 31.6 |  |  | 
20 | CCc1c(C#N)c(SC(C(N)=O)c2ccccc2)nc(N2CCc3ccncc3C2)c1C#N (stereo not shown) [Example 178, 2-((3,5-Dicyano-6-(3,4-dihydro-2,7-naphthyridin-2 (1H)-yl)-4-ethylpyridin-2-yl)thio)-2-phenylacetamide] |  | 1 to 31.6 |  | D (Category D: ≥6.5) | 
21 | CCc1c(C#N)c(SC(C(N)=O)c2cccnc2)nc(N2CC[C@H](O)C2)c1C#N (stereo partly drawn) [Example 181, 2-((3,5-Dicyano-4-ethyl-6-((S)-3-hydroxypyrrolidin-1-yl)pyridin-2-yl)thio)-2-(pyridin-3-yl)acetamide] | 0.316 to 1 | 1 to 31.6 |  |  | 
22 | CCc1c(C#N)c(SC(C(N)=O)c2ccccc2)nc(N2CCN(Cc3cc[nH]c3)CC2)c1C#N (stereo not shown) [Example 182, 2-((6-(4-((1H-Pyrrol-3-yl)methyl)piperazin-1-yl)-3,5-dicyano-4-ethylpyridin-2-yl)thio)-2-phenylacetamide] | 0.316 to 1 | 0.316 to 1 |  |  | 
23 | CCc1c(C#N)c(SC(C(N)=O)c2ccccc2)nc(N2CCN(Cc3ccon3)CC2)c1C#N (stereo not shown) [Example 183, 2-((3,5-Dicyano-4-ethyl-6-(4-(isoxazol-3-ylmethyl)piperazin-1-yl)pyridin-2-yl)thio)-2-phenylacetamide] | 0.316 to 1 | 1 to 31.6 |  |  | 
24 | CCc1c(C#N)c(SC(C(N)=O)c2ccccc2)nc(N2CCN(Cc3cnco3)CC2)c1C#N (stereo not shown) [Example 184, 2-((3,5-Dicyano-4-ethyl-6-(4-(oxazol-5-ylmethyl)piperazin-1-yl)pyridin-2-yl)thio)-2-phenylacetamide] | 0.316 to 1 | 0.316 to 1 |  |  | 
25 | CCc1c(C#N)c(SC(C(N)=O)c2ccccc2)nc(N2CCN(Cc3cnoc3)CC2)c1C#N (stereo not shown) [Example 185] | 0.316 to 1 | 0.316 to 1 |  |  | 
26 | CCc1c(C#N)c(SC(C(N)=O)c2ccccc2)nc(N2CCC(NC(=O)C3(N)COC3)CC2)c1C#N (stereo not shown) [Example 186, 3-Amino-N-(1-(6-((2-amino-2-oxo-1-phenylethyl)thio)-3,5-dicyano-4-ethylpyridin-2-yl)piperidin-4-yl)oxetane-3-carboxamide] |  | 1 to 31.6 |  | D (Category D: ≥6.5) | 
27 | CCc1c(C#N)c(SC(C(N)=O)c2ccccc2)nc(N2CCN(Cc3cn[nH]c3)CC2)c1C#N (stereo not shown) [Example 187, 2-((6-(4-((1H-Pyrazol-4-yl)methyl)piperazin-1-yl)-3,5-dicyano-4-ethylpyridin-2-yl)thio)-2-phenylacetamide] | 0.316 to 1 | 1 to 31.6 |  |  | 
28 | CCc1c(C#N)c(SC(C(N)=O)c2ccccc2)nc(N2CCN(Cc3cnc[nH]3)CC2)c1C#N (stereo not shown) [Example 188, 2-((6-(4-((1H-lmidazol-5-yl)methyl)piperazin-1-yl)-3,5-dicyano-4-ethylpyridin-2-yl)thio)-2-phenylacetamide] | 0.316 to 1 | 1 to 31.6 |  |  | 
29 | CCc1c(C#N)c(SC(C(N)=O)c2ccccc2)nc(N2CCN(C(C)(C)CO)CC2)c1C#N (stereo not shown) [Example 189] | 0.316 to 1 | 0.316 to 1 |  |  | 
30 | COc1c(C#N)c(SC(C(N)=O)c2ccccc2)nc(N(C)C)c1C#N (stereo not shown) [Example 191, 2-((3,5-Dicyano-6-(dimethylamino)-4-methoxypyridin-2-yl)thio)-2-phenylacetamide] |  | 0.316 to 1 |  | D (Category D: ≥6.5) | 
31 | CCOc1c(C#N)c(SC(C(N)=O)c2ccccc2)nc(N(C)C)c1C#N (stereo not shown) [Example 192, 2-((3,5-Dicyano-6-(dimethylamino)-4-ethoxypyridin-2-yl)thio)-2-phenylacetamide] |  | 1 to 31.6 |  | D (Category D: ≥6.5) | 
32 | CCOc1c(C#N)c(SC(C(N)=O)c2ccccc2)nc(N2CCCN(CCO)CC2)c1C#N (stereo not shown) [Example 193] |  | 0.316 to 1 |  | D (Category D: ≥6.5) | 
